Reference: PMC4821887, “Identification of chemicals that mimic transcriptional changes associated with autism, brain aging and neurodegeneration” (Nature Communications, 2016)

Tested on: mouse cortical cultures
Test: RNA-seq differential expression (DESeq) against matched vehicle
Type: cell-based
Parameters: key to MeanFenamidone Bcl11b / MeanFenamidone Slc12a4 / MeanFenamidone Abca1 / MeanFenamidone Hmox1 / MeanFenamidone Il1rap / MeanFenamidone Cyba / MeanFenamidone Narf / MeanFenamidone Bnip3 / MeanFenamidone Amotl2 / MeanFenamidone Gad2 / MeanFenamidone Vsnl1 / MeanFenamidone Fam178a: DESeq mean of counts over RefSeq exons
Procedure: Figure 4 Cluster 2 chemicals alter expression of a common set of genes. […] RNA-seq was performed in quadruplicate after treating cortical cultures with fenamidone (10 μM) or pyraclostrobin (0.1 μM) for 24 h (n=3 biological replicates) and compared with matched vehicle controls using DESeq to detect differentially expressed genes, listed in Supplementary Data 4.
Cultures were treated with the non-cytotoxic dose of each chemical, by exchanging half of the original medium with chemicals at 2 × concentration in prewarmed feeding medium, on DIV 7 for 24 h in 12-well plates at a density of 5 × 10^5 cells per well. RNA was isolated using RNeasy plus mini kit (Cat. #74134, Qiagen). […]. Samples were further assessed for quality using either an Agilent Bioanalyzer 2100 or TapeStation 2200 to obtain a RIN. RIN values exceeding 7 were used for sequencing. RNA samples were used to generate and barcode complementary DNA libraries using the TruSeq RNA Library Preparation Kit at the UNC High Throughput Sequencing Facility. Pools of 24 multiplexed samples were sequenced per lane on an Illumina HiSeq 2500 using 50-bp paired-end reads.
RNA-seq reads were filtered using TagDust and aligned to the reference mouse genome (mm9) with TopHat using default parameters. Reads aligning to ribosomal RNA genes were removed. Transcript abundance was estimated by computing Reads per kilobase per million mapped reads (RPKM) using RefSeq gene models aggregated by gene symbol. For differential expression analyses, raw counts over RefSeq exons were used, and then were compared across samples using DESeq[62].

CSC1=N[C@@](C)(c2ccccc2)C(=O)N1Nc1ccccc1 [fenamidone]
MeanFenamidone (gene Sult4a1): 337.631 | log2FoldChange (gene Sult4a1): -1.1579 | MeanFenamidone Sv2b (gene Sv2b, DESeq mean, 4 reps): 206.444 | log2FoldChange Sv2b (gene Sv2b, vs vehicle, 4 reps): -1.8053 | MeanFenamidone (DESeq mean normalized counts) (gene Svil, Fenamidone, 4 reps, vs matched vehicle): 63.1892 | MeanFenamidone Syn2 (gene Syn2, DESeq mean, 4 reps): 290.905 | log2FoldChange Syn2 (gene Syn2, vs vehicle, 4 reps): -1.354 | MeanFenamidone Syp (gene Syp, DESeq mean, 4 reps): 891.603 | log2FoldChange Syp (gene Syp, vs vehicle, 4 reps): -1.4647 | MeanFenamidone Syt1 (gene Syt1, DESeq mean, 4 reps): 825.321 | log2FoldChange Syt1 (gene Syt1, vs vehicle, 4 reps): -1.819 | MeanFenamidone Tagln (gene Tagln, DESeq mean, 4 reps): 2032.34 | log2FoldChange Tagln (gene Tagln, vs vehicle, 4 reps): 3.012 | MeanFenamidone Tead1 (gene Tead1, DESeq mean, 4 reps): 925.254 | log2FoldChange Tead1 (gene Tead1, vs vehicle, 4 reps): 2.035 | MeanFenamidone Tgfb2 (gene Tgfb2, DESeq mean, 4 reps): 420.529 | log2FoldChange Tgfb2 (gene Tgfb2, vs vehicle, 4 reps): 1.82 | MeanFenamidone Tgfb3 (gene Tgfb3, DESeq mean, 4 reps): 398.538 | log2FoldChange Tgfb3 (gene Tgfb3, vs vehicle, 4 reps): 2.304 | MeanFenamidone Thbs1 (gene Thbs1, DESeq mean, 4 reps): 3138.32 | log2FoldChange Thbs1 (gene Thbs1, vs vehicle, 4 reps): 2.61 | MeanFenamidone Tln1 (gene Tln1, DESeq mean, 4 reps): 658.354 | log2FoldChange Tln1 (gene Tln1, vs vehicle, 4 reps): 2.579 | MeanFenamidone Tmbim1 (gene Tmbim1, DESeq mean, 4 reps): 170.347 | log2FoldChange Tmbim1 (gene Tmbim1, vs vehicle, 4 reps): 2.378 | MeanFenamidone (gene Tmem181b-ps): 77.9777 | log2FoldChange (gene Tmem181b-ps): -1.325 | MeanFenamidone (gene Tmem229b): 256.203 | log2FoldChange (gene Tmem229b): -1.123 | MeanFenamidone Tnc (gene Tnc, DESeq mean, 4 reps): 998.798 | log2FoldChange Tnc (gene Tnc, vs vehicle, 4 reps): 2.934 | MeanFenamidone Tnfrsf10b (gene Tnfrsf10b, DESeq mean, 4 reps): 126.269 | log2FoldChange Tnfrsf10b (gene Tnfrsf10b, vs vehicle, 4 reps): 2.1709 | MeanFenamidone Tnfrsf12a (gene Tnfrsf12a, DESeq mean, 4 reps): 307.752 | log2FoldChange Tnfrsf12a (gene Tnfrsf12a, vs vehicle, 4 reps): 3.087 | MeanFenamidone (gene Tns1): 238.258 | log2FoldChange (gene Tns1): 2.58 | MeanFenamidone Tpm4 (gene Tpm4, DESeq mean, 4 reps): 930.727 | log2FoldChange Tpm4 (gene Tpm4, vs vehicle, 4 reps): 1.809 | MeanFenamidone Tpp1 (gene Tpp1, DESeq mean, 4 reps): 440.575 | log2FoldChange Tpp1 (gene Tpp1, vs vehicle, 4 reps): 1.842 | MeanFenamidone (gene Tro): 343.733 | log2FoldChange (gene Tro): -1.218 | MeanFenamidone (gene Tspyl4): 870.895 | log2FoldChange (gene Tspyl4): -1.118 | MeanFenamidone Tuba4a (gene Tuba4a, DESeq mean, 4 reps): 131.218 | log2FoldChange Tuba4a (gene Tuba4a, vs vehicle, 4 reps): -1.604 | MeanFenamidone Tubb6 (gene Tubb6, DESeq mean, 4 reps): 522.566 | log2FoldChange Tubb6 (gene Tubb6, vs vehicle, 4 reps): 2.127 | MeanFenamidone Tuft1 (gene Tuft1, DESeq mean, 4 reps): 71.0226 | log2FoldChange Tuft1 (gene Tuft1, vs vehicle, 4 reps): 2.58 | MeanFenamidone Txnrd1 (gene Txnrd1, DESeq mean, 4 reps): 1365.85 | log2FoldChange Txnrd1 (gene Txnrd1, vs vehicle, 4 reps): 1.713 | MeanFenamidone Uap1l1 (gene Uap1l1, DESeq mean, 4 reps): 115.372 | log2FoldChange Uap1l1 (gene Uap1l1, vs vehicle, 4 reps): 2.463 | MeanFenamidone (gene Vash1): 501.714 | log2FoldChange (gene Vash1): -1.142 | MeanFenamidone Vasn (gene Vasn, DESeq mean, 4 reps): 270.313 | log2FoldChange Vasn (gene Vasn, vs vehicle, 4 reps): 2.194 | MeanFenamidone Vcl (gene Vcl, DESeq mean, 4 reps): 498.388 | log2FoldChange Vcl (gene Vcl, vs vehicle, 4 reps): 2.095 | MeanFenamidone Vgll3 (gene Vgll3, DESeq mean, 4 reps): 231.289 | log2FoldChange Vgll3 (gene Vgll3, vs vehicle, 4 reps): 2.348 | MeanFenamidone (gene Vim): 6511.9 | log2FoldChange (gene Vim): 1.994 | MeanFenamidone Vsnl1 (gene Vsnl1, DESeq mean, 4 reps): 216.784 | log2FoldChange Vsnl1 (gene Vsnl1, vs vehicle, 4 reps): -1.6854 | MeanFenamidone Wls (gene Wls, DESeq mean, 4 reps): 676.758 | log2FoldChange Wls (gene Wls, vs vehicle, 4 reps): 1.397 | MeanFenamidone Wnk1 (gene Wnk1, DESeq mean, 4 reps): 1955.12 | log2FoldChange Wnk1 (gene Wnk1, vs vehicle, 4 reps): 1.378 | MeanFenamidone Xkr4 (gene Xkr4, DESeq mean, 4 reps): 97.5483 | log2FoldChange Xkr4 (gene Xkr4, vs vehicle, 4 reps): -1.595 | MeanFenamidone (gene Zak): 216.098 | log2FoldChange (gene Zak): 1.697 | MeanFenamidone (gene Zbtb7b): 137.122 | log2FoldChange (gene Zbtb7b): 2.108 | MeanFenamidone Zfp36l2 (gene Zfp36l2, DESeq mean, 4 reps): 339.831 | log2FoldChange Zfp36l2 (gene Zfp36l2, vs vehicle, 4 reps): 2.067
